According to publication PMC9467556, “Identification of novel pyrrolopyrimidine and pyrrolopyridine derivatives as potent ENPP1 inhibitors” (Journal of Enzyme Inhibition and Medicinal Chemistry, 2022):
Structures can show the parent of a compound that is named as a salt.

Target: T1, human recombinant ENPP1 (Homo sapiens, UniProt P22413)
T1 construct: purchased R&D systems
T1 sequence (P22413 1-925): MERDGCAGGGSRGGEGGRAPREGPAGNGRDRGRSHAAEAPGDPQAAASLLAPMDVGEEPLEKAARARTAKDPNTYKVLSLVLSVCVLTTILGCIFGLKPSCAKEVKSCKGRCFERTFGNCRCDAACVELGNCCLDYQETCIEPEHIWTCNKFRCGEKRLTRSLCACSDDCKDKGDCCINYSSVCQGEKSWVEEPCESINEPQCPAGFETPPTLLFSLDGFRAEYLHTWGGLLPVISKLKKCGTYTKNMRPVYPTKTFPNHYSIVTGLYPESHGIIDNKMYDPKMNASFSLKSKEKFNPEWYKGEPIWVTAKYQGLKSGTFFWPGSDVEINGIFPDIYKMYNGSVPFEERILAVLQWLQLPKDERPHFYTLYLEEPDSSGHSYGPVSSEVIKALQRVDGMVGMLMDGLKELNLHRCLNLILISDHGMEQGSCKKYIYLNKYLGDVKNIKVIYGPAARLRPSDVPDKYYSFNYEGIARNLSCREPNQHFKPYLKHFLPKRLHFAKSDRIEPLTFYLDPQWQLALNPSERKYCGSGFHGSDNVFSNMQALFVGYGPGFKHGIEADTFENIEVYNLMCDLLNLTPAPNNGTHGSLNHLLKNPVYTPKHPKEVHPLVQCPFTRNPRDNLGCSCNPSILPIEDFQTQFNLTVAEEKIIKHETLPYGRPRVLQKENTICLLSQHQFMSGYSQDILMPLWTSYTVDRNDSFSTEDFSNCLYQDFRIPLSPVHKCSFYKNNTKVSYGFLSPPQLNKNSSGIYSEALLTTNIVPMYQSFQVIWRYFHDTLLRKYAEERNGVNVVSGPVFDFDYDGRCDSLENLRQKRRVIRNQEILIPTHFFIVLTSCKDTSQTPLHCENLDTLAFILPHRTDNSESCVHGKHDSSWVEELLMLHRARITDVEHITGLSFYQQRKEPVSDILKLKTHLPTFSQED
Experiment: in vitro recombinant human ENPP1 enzymatic assay (AMP-Glo, cGAMP substrate)
Type: biochemical
Settings: for % inhibition: ENPP1, test concentration not given; for IC50: average ± SD from two or three independent repeats
Source text: ENPP1 hydrolyses nucleotides or nucleotide derivatives and produces nucleoside-5′-monophosphates and pyrophosphates. ENPP1 also hydrolyses 2′3′-cGAMP and produces 5′-adenosine monophosphate (AMP) and 5′ guanosine monophosphate (GMP). The produced AMP from the reaction is detected using the AMP-Glo® kit (Promega). The assay kit consists of two reagents; one to terminate the AMP-generating enzymatic reaction, remove ATP and convert AMP produced into ADP, and a second reagent to convert ADP to ATP, which is used to generate a luminescence in a luciferase reaction. The amount of light measured is proportional to the amount of AMP produced by ENPP1.
The final assay reaction mixture contains a buffer of 50 mM Tris (pH 8.5), 250 mM NaCl, 0.5 mM CaCl2, 1 μM ZnCl2, 5% glycerol and 1% DMSO. Serially diluted ENPP1 inhibitors (usually range from 10 μM to 0.5 nM) are pre-incubated with human recombinant ENPP1 enzyme (R&D systems) at 3 ng/reaction for 5–10 min at room temperature (RT). The reaction is initiated by adding cGAMP (at final concentration of 5 μM) and incubating for 90 min at 37 °C. At the end of incubation, the reaction is stopped by adding 10 μL of AMP-Glo reagent I and followed by incubation at RT for one hour. After incubation, 20 μL of AMP detection solution (mixture of AMP-Glo II reagent and Kinase-Glo one at 1:100 ratio) is added and incubated at RT for one hour. The luminescence signal generated is measured using the ClarioStar plate reader (BMG Labtech). Maximal activity control (containing enzyme and substrate in presence of 1% DMSO only; MAX) and background control (containing substrate and 1% DMSO; MIN) are evaluated simultaneously. In each experiment, serially diluted reference ENPP1 inhibitor is tested together. The IC50 values for % remaining activity versus compound concentration are determined by fitting the inhibition curves using a three-parameter variable method in GraphPad Prism® software. Triplicate wells are run at each inhibitor concentration and averaged IC50 value for each compound is calculated.

SMILES	% inhibition (Table 1) [%]	IC50 (Table 1) [nM]	% inhibition (Table 2) [%]	IC50 (Table 2) [nM]
NS(=O)(=O)NCCC1CCN(c2ncnc3[nH]ccc23)CC1 [18a, N-(2–(1-(7H-Pyrrolo[2,3-d]pyrimidin-4-yl)piperidin-4-yl)ethyl)methanesulfamide hydrochloride]	99			
CSc1nc(N2CCC(CCNS(N)(=O)=O)CC2)c2cc[nH]c2n1 [18b]	34	21610 ± 2.16		
NS(=O)(=O)NCC1CCN(c2ncnc3[nH]ccc23)CC1 [18c, N-((1–(7H-Pyrrolo[2,3-d]pyrimidin-4-yl)piperidin-4-yl)methyl)methanesulfamide hydrochloride]	100	19 ± 0.016		
Cn1ccc2c(N3CCC(CNS(N)(=O)=O)CC3)ncnc21 [18d, N-((1–(7-Methyl-7H-pyrrolo[2,3-d]pyrimidin-4-yl)piperidin-4-yl)methyl)methanesulfamide hydrochloride]	100	51.4 ± 0.002		
CC(C)n1ccc2c(N3CCC(CNS(N)(=O)=O)CC3)ncnc21 [18e, N-((1–(7-Isopropyl-7H-pyrrolo[2,3-d]pyrimidin-4-yl)piperidin-4-yl)methyl)methanesulfamide hydrochloride]	75	20660 ± 5.02		
NS(=O)(=O)NCC1CCN(c2ncnc3c2ccn3C2CC2)CC1 [18f, N-((1–(7-Cyclopropyl-7H-pyrrolo[2,3-d]pyrimidin-4-yl)piperidin-4-yl)methyl)methanesulfamide hydrochloride hydrochloride]	100	74 ± 0.052		
NS(=O)(=O)NCC1CCN(c2ncnc3c2ccn3-c2ccccc2)CC1 [18g, N-((1–(7-Phenyl-7H-pyrrolo[2,3-d]pyrimidin-4-yl)piperidin-4-yl)methyl)methanesulfamide hydrochloride hydrochloride]	99	298 ± 0.041		
NS(=O)(=O)NCC1CCN(c2ncnc3c2ccn3-c2ccc(F)cc2)CC1 [18h, N-((1–(7-(4-Fluorophenyl)-7H-pyrrolo[2,3-d]pyrimidin-4-yl)piperidin-4-yl)methyl)methanesulfamide hydrochloride]	54			
COc1ccc(-n2ccc3c(N4CCC(CNS(N)(=O)=O)CC4)ncnc32)cc1 [18i, N-((1–(7-(4-Methoxyphenyl)-7H-pyrrolo[2,3-d]pyrimidin-4-yl)piperidin-4-yl)methyl)methanesulfamide hydrochloride]	37			
NS(=O)(=O)NCC1CCN(c2ncnc3c2ccn3Cc2ccccc2)CC1 [18j, N-((1–(7-Benzyl-7H-pyrrolo[2,3-d]pyrimidin-4-yl)piperidin-4-yl)methyl)methanesulfamide hydrochloride]	17			
NS(=O)(=O)NCC1CCN(c2ncnc3c2ccn3-c2ccoc2)CC1 [18k, N-((1–(7-(Furan-3-yl)-7H-pyrrolo[2,3-d]pyrimidin-4-yl)piperidin-4-yl)methyl)methanesulfamide hydrochloride]	100	54.1 ± 0.001		
NS(=O)(=O)NCC1CCN(c2ncnc3c2ccn3-c2cccnc2)CC1 [18l, N-((1-(7-(Pyridin-3-yl)-7H-pyrrolo[2,3-d]pyrimidin-4-yl)piperidin-4-yl)methyl)methanesulfamide hydrochloride]	71	1853 ± 1.16		
Cc1c[nH]c2ncnc(N3CCC(CNS(N)(=O)=O)CC3)c12 [18m, N-((1–(5-Methyl-7H-pyrrolo[2,3-d]pyrimidin-4-yl)piperidin-4-yl)methyl)methanesulfamide hydrochloride]	94	462 ± 0.17		
Cc1cc2c(N3CCC(CNS(N)(=O)=O)CC3)ncnc2[nH]1 [18n, N-((1–(6-Methyl-7H-pyrrolo[2,3-d]pyrimidin-4-yl)piperidin-4-yl)methyl)methanesulfamide hydrochloride]	99	218 ± 0.019		
CC(NS(N)(=O)=O)C1CCN(c2ncnc3[nH]ccc23)CC1 (stereo not drawn) [18o, N-(1–(1-(7H-Pyrrolo[2,3-d]pyrimidin-4-yl)piperidin-4-yl)ethyl)methanesulfamide hydrochloride]	99	250 ± 0.028		
NS(=O)(=O)NC1CCN(c2ncnc3[nH]ccc23)CC1 [18q, N-(1-(7H-Pyrrolo[2,3-d]pyrimidin-4-yl)piperidin-4-yl)methanesulfamide hydrochloride]	71	3323 ± 0.298		
Cl.O=S(=O)(NCC1CCN(c2ncnc3[nH]ccc23)CC1)c1cccs1 [20a, N-((1-(7H-Pyrrolo[2,3-d]pyrimidin-4-yl)piperidin-4-yl)methyl)thiophene-2-sulfonamide hydrochloride]	37			
Cc1ccc(S(=O)(=O)NCC2CCN(c3ncnc4[nH]ccc34)CC2)cc1.Cl [20b, N-((1-(7H-Pyrrolo[2,3-d]pyrimidin-4-yl)piperidin-4-yl)methyl)-4-methylbenzenesulfonamide hydrochloride]	62			
Cl.O=S(=O)(NCC1CCN(c2ncnc3[nH]ccc23)CC1)C1CC1 [20c, N-((1-(7H-Pyrrolo[2,3-d]pyrimidin-4-yl)piperidin-4-yl)methyl)cyclopropanesulfonamide hydrochloride]	22			
NS(=O)(=O)Nc1ccc(-c2ncnc3[nH]ccc23)cc1 [25a]			0	
NS(=O)(=O)Nc1ccc(-c2ccnc3[nH]ccc23)cc1 [25b, N-(4-(1H-Pyrrolo[2,3-b]pyridin-4-yl)phenyl)methanesulfamide hydrochloride]			33	
NS(=O)(=O)NCc1ccc(-c2ncnc3[nH]ccc23)cc1F [25c, N-(2-Fluoro-4-(7H-pyrrolo[2,3-d]pyrimidin-4-yl)benzyl)methanesulfamide hydrochloride]			73	
NS(=O)(=O)NCc1ccc(-c2ncnc3[nH]ccc23)cc1 [25d, N-(4-(7H-Pyrrolo[2,3-d]pyrimidin-4-yl)benzyl)methanesulfamide hydrochloride]			76	7597 ± 1.27
Cn1ccc2c(-c3ccc(CNS(N)(=O)=O)cc3)ncnc21 [25e, N-(4-(7-Methyl-7H-pyrrolo[2,3-d]pyrimidin-4-yl)benzyl)methanesulfamide hydrochloride]			72	
NS(=O)(=O)NCc1cccc(-c2ncnc3[nH]ccc23)c1 [25g, N-(3-(7H-Pyrrolo[2,3-d]pyrimidin-4-yl)benzyl)methanesulfamide hydrochloride]			53	4769 ± 0.455
CC(C)(NS(N)(=O)=O)c1ccc(-c2ncnc3[nH]ccc23)cc1 [25h, N-(2–(4-(7H-Pyrrolo[2,3-d]pyrimidin-4-yl)phenyl)propan-2-yl)methanesulfamide hydrochloride]			98	1466 ± 0.044
CC(NS(N)(=O)=O)c1ccc(-c2ncnc3[nH]ccc23)cc1 (stereo not drawn) [25j, N-(1–(4-(7H-Pyrrolo[2,3-d]pyrimidin-4-yl)phenyl)ethyl)methanesulfamide hydrochloride]			100	
